Assay results: patent US11053225B2, “Pyrimidine derivative compound, optical isomer thereof, or pharmaceutically acceptable salt thereof, and composition for preventing or treating Tyro 3 related disease comprising same as active ingredient” (KOREA RESEARCH INSTITUTE OF CHEMICAL TECHNOLOGY, priority 2017, dated 2021)
pIC50: −log10 of the molar value.

Biological target: Axl (Homo sapiens (Human), UniProt P30530)
Assay: Axl kinase inhibition assay (Cisbio method, Eu-labeled antibody to phosphorylated peptide)
Details: read-out: IC50 (μM) Axl; 1 hour reaction with substrate peptide and ATP
Procedure: (§1) For evaluation of inhibitory activities of the compounds according to the present invention on Tyro 3, Axl, and Mer, the following test was carried out.
(§2) The specific test method followed the method provided by Cisbio. The compounds of the examples were prepared at various concentrations, followed by addition of Tyro 3, Axl, or Mer and substrate peptides, and then ATP was added to initiate a reaction. After 1 hour, the reaction was stopped by addition of a solution containing EDTA. Thereafter, the amount of phosphorylated peptides was measured. Here, the phosphorylated peptides were treated with an europium (Eu)-labeled antibody recognizing phosphorylated peptides, and then after 1 hour, excited by irradiation of the light of a wavelength of 320 or 340 nm using an Envision Reader.

Chain of Axl (P30530 26-894): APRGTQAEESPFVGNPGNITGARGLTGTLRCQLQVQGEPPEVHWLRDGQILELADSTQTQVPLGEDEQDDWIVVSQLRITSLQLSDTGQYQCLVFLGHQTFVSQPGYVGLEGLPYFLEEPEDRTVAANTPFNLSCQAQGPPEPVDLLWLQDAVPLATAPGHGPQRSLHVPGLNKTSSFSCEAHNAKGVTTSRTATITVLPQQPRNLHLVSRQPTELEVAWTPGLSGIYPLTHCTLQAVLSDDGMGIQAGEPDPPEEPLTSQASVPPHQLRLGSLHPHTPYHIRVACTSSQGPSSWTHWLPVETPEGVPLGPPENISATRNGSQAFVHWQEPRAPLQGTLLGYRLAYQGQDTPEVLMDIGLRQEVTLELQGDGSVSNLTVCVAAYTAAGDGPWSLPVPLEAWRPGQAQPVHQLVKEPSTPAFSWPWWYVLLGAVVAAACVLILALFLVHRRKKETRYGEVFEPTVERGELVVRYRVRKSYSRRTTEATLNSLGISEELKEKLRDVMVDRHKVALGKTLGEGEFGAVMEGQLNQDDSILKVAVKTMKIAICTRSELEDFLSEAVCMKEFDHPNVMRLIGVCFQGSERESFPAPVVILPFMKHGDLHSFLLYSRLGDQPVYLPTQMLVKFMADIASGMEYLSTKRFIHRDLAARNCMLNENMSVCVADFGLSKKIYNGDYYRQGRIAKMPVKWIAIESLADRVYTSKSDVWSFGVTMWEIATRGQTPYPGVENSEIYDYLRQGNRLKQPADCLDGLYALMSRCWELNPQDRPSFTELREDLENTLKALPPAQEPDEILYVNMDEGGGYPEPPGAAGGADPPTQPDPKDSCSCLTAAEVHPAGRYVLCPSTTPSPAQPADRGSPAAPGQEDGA

IC50 [µM]	SMILES
> 10	Cc1ccc(Nc2ncc(-c3ccc(C)cc3)c(NC3CCCCC3)n2)cc1 [Compound 2, N4-cyclohexyl-N2,5-di-(p-tolyl)pyrimidine-2,4-diamine]
> 10	Cn1cc(-c2cnc(Nc3ccccc3)nc2NC2CCCCC2)cn1 [Compound 6, N4-cyclohexyl-5-(1-methyl-1H-pyrazol-4-yl)-N2-phenylpyrimidine-2,4-diamine]
> 10	COc1ccc(Nc2ncc(-c3cnn(C)c3)c(NC3CCCCC3)n2)cc1Cl [Compound 9, N2-(3-chloro-4-methoxyphenyl)-N4-cyclohexyl-5-(1-methyl-1H-pyrazol-4-yl)pyrimidine-2,4-diamine]
> 10	Cc1ccc(Nc2ncc(-c3ccoc3)c(NC3CCCCC3)n2)cc1 [Compound 14, N4-cyclohexyl-5-(furan-3-yl)-N2-(p-tolyl)pyrimidine-2,4-diamine]
> 10	Clc1cc(Cl)cc(Nc2ncc(-c3ccoc3)c(NC3CCCCC3)n2)c1 [Compound 15, N4-cyclohexyl-N2-(3,5-dichlorophenyl)-5-(furan-3-yl)pyrimidine-2,4-diamine]
> 10	Cn1cc(-c2cnc(NCCc3ccncc3)nc2NC2CCCCC2)cn1 [Compound 17]
> 10	Cn1cc(-c2cnc(NC34CC5CC(CC(C5)C3)C4)nc2NC2CCCCC2)cn1 [Compound 23, N4-cyclohexyl-N2-adamantyl-5-(1-methyl-1H-pyrazol-4-yl)pyrimidine-2,4-diamine]
> 10	Cc1cc(Nc2ncc(-c3cnn(C)c3)c(NC3CCN(C(=O)C(F)(F)F)CC3)n2)ccc1Cl [Compound 43, 1-(4-(2-(3-methyl-4-chlorophenylamino)-5-(1-methyl-1H-pyrazol-4-yl)pyrimidin-4-ylamino)piperidin-1-yl)-2,2,2-trifluoroethanone]
> 10	COc1ccc(Nc2ncc(-c3cnn(C)c3)c(NC3CCN(C(=O)C(F)(F)F)CC3)n2)cc1 [Compound 44, 1-(4-(2-(4-methoxyphenylamino)-5-(1-methyl-1H-pyrazol-4-yl)pyrimidin-4-ylamino)piperidin-1-yl)-2,2,2-trifluoroethanone]
> 10	COc1ccc(Nc2ncc(-c3cnn(C)c3)c(NC3CCNCC3)n2)cc1 [Compound 47, N2-(4-methoxyphenyl)-5-(1-methyl-1H-pyrazol-4-yl)-N4-(piperidin-4-yl)pyrimidine-2,4-diamine]
> 10	Cc1ccc(Nc2ncc(-c3ccoc3)c(NC3CCN(C(=O)C(F)(F)F)CC3)n2)cc1 [Compound 49, 1-(4-(2-(p-toluidino)-5-(furan-3-yl)pyrimidin-4-ylamino)piperidin-1-yl)-2,2,2-trifluoroethanone]
> 10	Cc1cccc(Nc2ncc(-c3ccoc3)c(NC3CCN(C(=O)C(F)(F)F)CC3)n2)c1 [Compound 50, 1-(4-(2-(m-toluidino)-5-(furan-3-yl)pyrimidin-4-ylamino)piperidin-1-yl)-2,2,2-trifluoroethanone]
> 10	COc1ccc(Nc2ncc(-c3ccc(OC)c(OC)c3)c(NC3CCN(C(=O)C(F)(F)F)CC3)n2)cc1 [Compound 64, 1-(4-(5-(3,4-dimethoxyphenyl)-2-(4-methoxyphenylamino)pyrimidin-4-ylamino)piperidin-1-yl)-2,2,2-trifluoroethanone]
> 10	COc1ccccc1Nc1ncc(-c2ccc(OC)c(OC)c2)c(NC2CCNCC2)n1 [Compound 68, 5-(3,4-dimethoxyphenyl)-N2-(2-methoxyphenyl)-N4-(piperidin-4-yl)pyrimidine-2,4-diamine]
> 10	COc1ccc(-c2cnc(Nc3cccc(Cl)c3)nc2NC2CCN(C(=O)C(F)(F)F)CC2)cc1OC [Compound 69, 1-(4-(2-(3-chlorophenylamino)-5-(3,4-dimethoxyphenyl)pyrimidin-4-ylamino)piperidin-1-yl)-2,2,2-trifluoroethanone]
> 10	Cn1cc(-c2cnc(Nc3ccc4c(c3)CN(C(=O)C(F)(F)F)CC4)nc2NC2CCN(C(=O)C(F)(F)F)CC2)cn1 [Compound 70, 1-(4-(5-(1-methyl-1H-pyrazol-4-yl)-2-(2-(2,2,2-trifluoroacetyl)-1,2,3,4-tetrahydroisoquinolin-7-ylamino)pyrimidin-4-ylamino)piperidin-1-yl)-2,2,2-trifluoroethanone]
> 10	O=C(N1CCC(Nc2nc(Nc3cc(Cl)cc(Cl)c3)ncc2-c2cnn(CCO)c2)CC1)C(F)(F)F [Compound 71, 1-(4-(2-(3,5-dichlorophenylamino)-5-(1-(2-hydroxyethyl)-1H-pyrazol-4-yl)pyrimidin-4-ylamino)piperidin-1-yl)-2,2,2-trifluoroethanone]
> 10	Cn1cc(-c2cnc(Nc3ccc4c(c3)CN(C(=O)C(F)(F)F)CC4)nc2N[C@H]2CC[C@@H](NC(=O)C(F)(F)F)CC2)cn1 [Compound 86, N-((1s,4s)-4-(5-(1-methyl-1H-pyrazol-4-yl)-2-(2-(2,2,2-trifluoroacetyl)-1,2,3,4-tetrahydroisoquinolin-7-ylamino)pyrimidin-4-ylamino)cyclohexyl)-2,2,2-trifluoroacetamide]
> 10	Cn1cc(-c2cnc(Nc3ccc4c(c3)CNCC4)nc2N[C@H]2CC[C@@H](N)CC2)cn1 [Compound 88, N4-((1s,4s)-4-aminocyclohexyl)-5-(1-methyl-1H-pyrazol-4-yl)-N2-(1,2,3,4-tetrahydroisoquinolin-7-yl)pyrimidin-2,4-diamine]
> 10	O=C(NC1CCC(Nc2nc(Nc3cc(Cl)cc(Cl)c3)ncc2-c2cnn(C3CCNCC3)c2)CC1)C(F)(F)F (centres unmarked) [Compound 122, 1-(4-(2-(3,5-dichlorophenylamino)-5-(1-(piperidin-4-yl)-1H-pyrazol-4-yl)pyrimidin-4-ylamino)cyclohexyl)-2,2,2-trifluoroacetamide]
> 10	O=C(N1CCc2ccc(Nc3nc(Nc4cc(C(F)(F)F)cc(C(F)(F)F)c4)ncc3-c3cnn(CCO)c3)cc2C1)C(F)(F)F [Compound 124, 1-(7-(2-(3,5-bis(trifluoromethyl)phenylamino)-5-(1-(2-hydroxyethyl)-1H-pyrazol-4-yl)pyrimidin-4-ylamino)-3,4-dihydroisoquinolin-2(1H)-yl)-2,2,2-trifluoroethanone]
> 10	O=C(N1CCc2ccc(Nc3nc(Nc4cccc(Cl)c4Cl)ncc3-c3cnn(CCO)c3)cc2C1)C(F)(F)F [Compound 125, 1-(7-(2-(2,3-dichlorophenylamino)-5-(1-(2-hydroxyethyl)-1H-pyrazol-4-yl)pyrimidin-4-ylamino)-3,4-dihydroisoquinolin-2(1H)-yl)-2,2,2-trifluoroethanone]
> 10	Cn1cc(-c2cnc(Nc3cc(C(F)(F)F)cc(C(F)(F)F)c3)nc2Nc2ccc3c(c2)CNCC3)cn1 [Compound 136, N2-(3,5-bis(trifluoromethyl)phenyl)-5-(1-methyl-1H-pyrazol-4-yl)-N4-(1,2,3,4-tetrahydroisoquinolin-7-yl)pyrimidine-2,4-diamine]
> 10	COc1cc(Nc2ncc(-c3cnn(C)c3)c(Nc3ccc4c(c3)CN(C(=O)C(F)(F)F)CC4)n2)cc(OC)c1 [Compound 138, 1-(7-(2-(3,5-dimethoxyphenylamino)-5-(1-methyl-1H-pyrazol-4-yl)pyrimidin-4-ylamino)-3,4-dihydroisoquinolin-2(1H)-yl)-2,2,2-trifluoroethan-1-one]

Biological target: Mer (Homo sapiens (Human), UniProt Q12866)
Sequence (Q12866 21-999): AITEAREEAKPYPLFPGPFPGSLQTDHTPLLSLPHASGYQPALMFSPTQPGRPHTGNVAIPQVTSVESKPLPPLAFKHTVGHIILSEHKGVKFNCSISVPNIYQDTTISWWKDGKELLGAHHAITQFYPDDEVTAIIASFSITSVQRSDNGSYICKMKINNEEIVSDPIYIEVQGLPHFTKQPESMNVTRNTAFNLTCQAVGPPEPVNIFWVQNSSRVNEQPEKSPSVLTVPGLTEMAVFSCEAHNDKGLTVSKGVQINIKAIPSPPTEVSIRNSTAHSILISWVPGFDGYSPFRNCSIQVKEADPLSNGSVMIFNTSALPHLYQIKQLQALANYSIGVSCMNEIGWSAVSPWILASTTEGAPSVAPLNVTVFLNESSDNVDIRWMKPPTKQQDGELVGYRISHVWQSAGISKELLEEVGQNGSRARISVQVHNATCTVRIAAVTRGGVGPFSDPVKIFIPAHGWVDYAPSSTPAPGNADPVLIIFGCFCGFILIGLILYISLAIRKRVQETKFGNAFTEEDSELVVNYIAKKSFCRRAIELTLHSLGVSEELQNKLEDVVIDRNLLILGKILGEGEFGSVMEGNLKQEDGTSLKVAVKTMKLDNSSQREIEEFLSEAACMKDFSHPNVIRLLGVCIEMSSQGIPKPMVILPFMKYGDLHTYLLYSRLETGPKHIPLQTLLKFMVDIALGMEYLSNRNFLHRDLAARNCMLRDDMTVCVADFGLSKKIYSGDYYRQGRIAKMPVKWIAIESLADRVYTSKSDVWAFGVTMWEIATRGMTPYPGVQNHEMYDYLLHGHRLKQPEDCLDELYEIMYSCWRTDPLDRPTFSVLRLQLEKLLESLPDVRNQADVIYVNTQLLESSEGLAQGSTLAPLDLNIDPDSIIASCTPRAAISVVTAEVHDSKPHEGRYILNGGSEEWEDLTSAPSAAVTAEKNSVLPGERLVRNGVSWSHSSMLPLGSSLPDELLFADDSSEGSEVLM
Assay: Mer kinase inhibition assay (Cisbio method, Eu-labeled antibody to phosphorylated peptide)
Details: read-out: IC50 (μM) Mer; 1 hour reaction with substrate peptide and ATP
Procedure: as §1, §2

IC50 [µM]	SMILES
0.068	CCOc1cn(-c2ccc(F)cc2C)nc1C(=O)Nc1ccc(Oc2ccnc3cc(OC)c(OC)cc23)c(F)c1 [LDC1267, reference compound]

Biological target: hERG (Homo sapiens (Human), UniProt Q12809)
Sequence (Q12809 whole entry): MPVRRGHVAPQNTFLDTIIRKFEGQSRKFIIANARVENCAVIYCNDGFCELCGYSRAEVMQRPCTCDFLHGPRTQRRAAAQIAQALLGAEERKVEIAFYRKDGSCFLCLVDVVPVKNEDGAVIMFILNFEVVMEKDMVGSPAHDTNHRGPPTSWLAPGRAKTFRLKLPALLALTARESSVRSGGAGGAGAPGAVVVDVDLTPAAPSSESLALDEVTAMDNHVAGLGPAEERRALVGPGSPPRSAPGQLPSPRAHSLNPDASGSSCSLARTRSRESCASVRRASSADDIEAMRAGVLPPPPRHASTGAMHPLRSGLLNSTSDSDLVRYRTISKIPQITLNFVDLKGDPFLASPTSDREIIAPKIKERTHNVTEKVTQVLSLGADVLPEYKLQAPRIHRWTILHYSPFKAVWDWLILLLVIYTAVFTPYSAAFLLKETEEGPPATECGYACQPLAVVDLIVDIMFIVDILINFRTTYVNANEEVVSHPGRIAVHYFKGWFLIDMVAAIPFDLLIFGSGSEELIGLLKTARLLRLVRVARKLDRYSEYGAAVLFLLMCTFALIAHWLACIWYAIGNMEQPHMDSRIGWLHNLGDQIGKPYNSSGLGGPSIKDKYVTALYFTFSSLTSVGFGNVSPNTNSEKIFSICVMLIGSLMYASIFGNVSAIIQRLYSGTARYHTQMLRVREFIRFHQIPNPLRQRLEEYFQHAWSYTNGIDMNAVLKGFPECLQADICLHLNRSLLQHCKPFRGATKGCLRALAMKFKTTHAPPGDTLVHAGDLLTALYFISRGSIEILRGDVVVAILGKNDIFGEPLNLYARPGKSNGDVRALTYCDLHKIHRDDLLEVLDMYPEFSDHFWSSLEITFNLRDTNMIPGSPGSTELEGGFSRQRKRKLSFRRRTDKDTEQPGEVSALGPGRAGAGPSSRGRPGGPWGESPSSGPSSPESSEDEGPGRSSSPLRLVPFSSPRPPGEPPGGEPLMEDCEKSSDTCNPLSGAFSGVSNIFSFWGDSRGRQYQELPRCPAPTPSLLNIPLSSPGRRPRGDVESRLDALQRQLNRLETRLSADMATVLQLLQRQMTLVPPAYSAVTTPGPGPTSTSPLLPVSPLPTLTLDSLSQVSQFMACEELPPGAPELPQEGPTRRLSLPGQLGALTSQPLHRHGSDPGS
Assay: human ether-a-go-go-related gene (hERG) assay
Details: not given
Procedure: In the development of medicines, drug toxicity as well as therapeutic effects plays an important role. One of the most commonly used criteria for determining drug toxicity is human ether-a-go-go-related gene (hERG) toxicity. Most pharmaceutical companies determine a drug showing a hERG IC50 value of less than 0.1 μM to be highly toxic, and thus stop the development of the drug. Whereas, the companies determine a drug showing a hERG IC50 value of 10 μM or more to be non-toxic.
For investigation of the degree of drug toxicity by TAM receptor inhibiting compounds of the present invention, human ether-a-go-go-related gene (hERG) assay was performed on Compounds 29, 60, 73, 75, 84, 89, and 132 on Table 4.

SMILES	pIC50
Cn1cc(-c2cnc(Nc3cc(Cl)cc(Cl)c3)nc2NC2CCNCC2)cn1 [Compound 29, N2-(3,5-dichlorophenyl)-5-(1-methyl-1H-pyrazol-4-yl)-N4-(piperidin-4-yl)pyrimidine-2,4-diamine]	≥ 6.00
COc1cccc(-c2cnc(Nc3cc(Cl)cc(Cl)c3)nc2NC2CCNCC2)c1 [Compound 60, N2-(3,5-dichlorophenyl)-5-(3-methoxyphenyl)-N4-(piperidin-4-yl)pyrimidine-2,4-diamine]	≥ 6.00
Clc1cc(Cl)cc(Nc2ncc(-c3cnn(C4CCNCC4)c3)c(NC3CCNCC3)n2)c1 [Compound 73, N2-(3,5-dichlorophenyl)-N4-(piperidin-4-yl)-5-(1-(piperidin-4-yl)-1H-pyrazol-4-yl)pyrimidine-2,4-diamine]	≤ 4.30
OCCn1cc(-c2cnc(Nc3cc(Cl)cc(Cl)c3)nc2NC2CCNCC2)cn1 [Compound 75, 2-(4-(2-(3,5-dichlorophenylamino)-4-(piperidin-4-ylamino)pyrimidin-5-yl)-1H-pyrazol-1-yl)ethanol]	≤ 4.30

Same assay, conditions: result in words

SMILES	hERG toxicity
Cn1cc(-c2cnc(Nc3cc(Cl)cc(Cl)c3)nc2Nc2ccc3c(c2)CNCC3)cn1 [Compound 84, N2-(3,5-dichlorophenyl)-5-(1-methyl-1H-pyrazol-4-yl)-N4-(1,2,3,4-tetrahydroisoquinolin-7-yl)pyrimidine-2,4-diamine]	no hERG toxicity
OCCn1cc(-c2cnc(Nc3cc(Cl)cc(Cl)c3)nc2Nc2ccc3c(c2)CNCC3)cn1 [Compound 89, 2-(4-(2-(3,5-dichlorophenylamino)-4-(1,2,3,4-tetrahydroisoquinolin-7-ylamino)pyrimidin-5-yl)-1H-pyrazol-1-yl)ethanol]	no hERG toxicity
Clc1cc(Cl)cc(Nc2ncc(-c3cnn(C4CCNCC4)c3)c(Nc3ccc4c(c3)CNCC4)n2)c1 [Compound 132, N2-(3,5-dichlorophenyl)-5-(1-(piperidin-4-yl)-1H-pyrazol-4-yl)-N4-(1,2,3,4-tetrahydroisoquinolin-7-yl)pyrimidine-2,4-diamine]	no hERG toxicity
